A short description of series [1]: Measurement of average particle diameter of particulate formulation (automatic particle image analyzer). In kind it is physicochemical. To be noted: particle diameter of 50% by volume; 20000 or more particles. How it is done:
Herein, the “average particle diameter” means the particle diameter of 50% by volume of the entire particles and may be measured by using an “automatic particle image analyzer” (a particle image analyzer is an apparatus for measuring the particle diameter from images of photographed particles) and a “laser diffraction particle size distribution analyzer” (or a “laser diffraction/scattering particle size distribution analyzer”).
The average particle diameter was measured using 20000 or more particles with an automatic particle image analyzer (Morphologi (registered trade name)-G3 from Malvern Instruments).

The nature of series [2]: Dissolution test, flow-through cell method of the Japanese Pharmacopoeia. To be noted: Tamsulosin hydrochloride. In kind it is physicochemical. How it is done:
According to the flow-through cell method disclosed in the Japanese Pharmacopoeia, the test was carried out using a dissolution medium which was one of 1st fluid for dissolution test (pH 1.2), 2nd fluid for dissolution test (pH 6.8), and a disodium hydrogen phosphate-citric acid buffer solution at pH 7.2 (obtained by dissolving 7.1 g of dehydrated disodium hydrogen phosphate in water and adjusting the total volume to be 1000 mL, and adjusting the pH to 7.2 by adding, to the obtained solution, a solution obtained by dissolving 5.3 g of citric acid monohydrate in water and adjusting the total volume to be 1000 mL).
Swinnex Filter Holder 25 mm (from Nippon Millipore) was used for a cell. In order to prevent flowing out of the particulate formulations, a support screen (25 mm stainless, from Nippon Millipore), Durapore Membrane Filters (PVDF, Hydrophilic, 0.45 μm, 25 mm, from Nippon Millipore), and a silicon gasket 25 mm (Swinnex Filter Holder from Nippon Millipore) were successively installed. Masterflex L/S (Model 7524-50 from Cole Parmer Instrument COMPANY) was used as a pump and a dissolution medium was transported at 2.5 mL/min. Besides that, the test was carried out according to the flow-through cell method disclosed in the Japanese Pharmacopeia. An eluate was sampled 10, 30, 60 minutes after starting the test and the dissolution amount of the drug in the eluate was measured by high performance liquid chromatography (HPLC) and the dissolution rate to the initial drug content was calculated.

Each structure is given as a SMILES string. Counter-ions that a name gives are not always drawn.

Consider `CCOc1ccccc1OCCN[C@H](C)Cc1ccc(OC)c(S(N)(=O)=O)c1` [Comparative Example 9, Tamsulosin hydrochloride], for which the “Average particle diameter of particulate formulations” value in series [1] is 2.7 μm. Also, the “Elution rate ratio between pH 6.8 and pH 1.2” value in series [2] (60 min) came out at 2.4. Moreover, the “Drug dissolution under a condition of pH 1.2, in words” value in series [2] (pH 1.2) is “high drug dissolution rate”. For the same molecule, the “Pharmaceutical elution rate 60 minutes after starting the test(%)” value was found to be 36.7% in series [2] (pH 1.2, 60 min) and 88.4% in series [2] (pH 6.8, 60 min). Also, the “Drug dissolution under a condition of pH 6.8, in words” value in series [2] (pH 6.8) was “high drug dissolution rate”.

The values above are taken from patent publication US20120308662A1, “PARTICULATE PREPARATION AND METHOD FOR PRODUCING THE SAME” (NITTO DENKO CORPORATION, priority 2011, published 2012).
